# Experimental data reported in PMC3855619 (Biochemistry, 2013).
# Molecular target: GI 77862362; decaprenyl diphosphate synthase [Rhodobacter capsulatus] (Rhodobacter capsulatus, UniProt Q07D00)
# Assay: product chain-length by TLC with […]IPP
# Type: biochemical
# Chain of GI 77862362; decaprenyl diphosphate synthase [Rhodobacter capsulatus] (Q07D00 1-333): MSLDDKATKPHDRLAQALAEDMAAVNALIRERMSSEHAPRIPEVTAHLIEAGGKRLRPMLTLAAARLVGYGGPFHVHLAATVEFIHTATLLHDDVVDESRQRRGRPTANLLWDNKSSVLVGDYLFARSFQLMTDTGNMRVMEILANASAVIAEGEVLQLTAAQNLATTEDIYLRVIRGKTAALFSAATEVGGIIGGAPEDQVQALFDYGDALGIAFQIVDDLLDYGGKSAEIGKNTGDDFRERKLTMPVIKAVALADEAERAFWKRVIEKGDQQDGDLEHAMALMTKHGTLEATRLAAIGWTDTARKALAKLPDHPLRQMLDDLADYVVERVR
smiles,measurement,value
C=C(C)CCOP(=O)(O)OP(=O)(O)O [IPP],product chain-length by TLC with [14C]IPP,different ratios of IPP:DMAPP and IPP:FPP
